# Assay results as given in PubChem BioAssay (NCI).
#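 These data come from cells grown in 96-well plates and exposed to compound for 48 hours at five concentrations. TGI: total growth inhibition.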
# Key:
# Experiment in all cases: NCI-60 cell line screen, 48 h
# 786-0 renal = test system: 786-0 renal
# A498 renal = test system: A498 renal
# A549 NSCLC = test system: A549 NSCLC
# ACHN renal = test system: ACHN renal
# BT-549 breast = test system: BT-549 breast
# CAKI-1 renal = test system: CAKI-1 renal
# CCRF-CEM leukemia = test system: CCRF-CEM leukemia
# COLO 205 colon = test system: COLO 205 colon
# DU-145 prostate = test system: DU-145 prostate
# EKVX NSCLC = test system: EKVX NSCLC
# HCC-2998 colon = test system: HCC-2998 colon
# HCT-116 colon = test system: HCT-116 colon
# HCT-15 colon = test system: HCT-15 colon
# HL-60(TB) leukemia = test system: HL-60(TB) leukemia
# HOP-62 NSCLC = test system: HOP-62 NSCLC
# HOP-92 NSCLC = test system: HOP-92 NSCLC
# HT29 colon = test system: HT29 colon
# IGROV1 ovarian = test system: IGROV1 ovarian
# K-562 leukemia = test system: K-562 leukemia
# KM12 colon = test system: KM12 colon
# LOX IMVI melanoma = test system: LOX IMVI melanoma
# M14 melanoma = test system: M14 melanoma
# MALME-3M melanoma = test system: MALME-3M melanoma
# MCF7 breast = test system: MCF7 breast
# MDA-MB-231 breast = test system: MDA-MB-231 breast
# MDA-MB-435 = test system: MDA-MB-435
# MDA-N = test system: MDA-N
# MOLT-4 leukemia = test system: MOLT-4 leukemia
# NCI-H226 lung = test system: NCI-H226 lung
# NCI-H23 lung = test system: NCI-H23 lung
# NCI-H460 lung = test system: NCI-H460 lung
# NCI-H522 lung = test system: NCI-H522 lung
# NCI/ADR-RES ovarian = test system: NCI/ADR-RES ovarian
# OVCAR-3 ovarian = test system: OVCAR-3 ovarian
# OVCAR-4 ovarian = test system: OVCAR-4 ovarian
# OVCAR-5 ovarian = test system: OVCAR-5 ovarian
# OVCAR-8 ovarian = test system: OVCAR-8 ovarian
# PC-3 prostate = test system: PC-3 prostate
# RPMI-8226 leukemia = test system: RPMI-8226 leukemia
# RXF 393 renal = test system: RXF 393 renal
# SF-268 CNS = test system: SF-268 CNS
# SF-295 CNS = test system: SF-295 CNS
# SF-539 CNS = test system: SF-539 CNS
# SK-MEL-2 melanoma = test system: SK-MEL-2 melanoma
# SK-MEL-28 melanoma = test system: SK-MEL-28 melanoma
# SK-MEL-5 melanoma = test system: SK-MEL-5 melanoma
# SK-OV-3 ovarian = test system: SK-OV-3 ovarian
# SN12C renal = test system: SN12C renal
# SNB-19 CNS = test system: SNB-19 CNS
# SNB-75 CNS = test system: SNB-75 CNS
# SR leukemia = test system: SR leukemia
# SW-620 colon = test system: SW-620 colon
# T-47D breast = test system: T-47D breast
# TK-10 renal = test system: TK-10 renal
# U251 CNS = test system: U251 CNS
# UACC-257 melanoma = test system: UACC-257 melanoma
# UACC-62 melanoma = test system: UACC-62 melanoma
# UO-31 renal = test system: UO-31 renal
smiles,measurement,setting,value
COC(=O)CCCc1nc2ccccc2nc1N=Nc1ccccc1,TGI,786-0 renal,> 100 µM
same,TGI,A498 renal,> 100 µM
same,TGI,A549 NSCLC,> 100 µM
same,TGI,ACHN renal,> 100 µM
same,TGI,BT-549 breast,> 100 µM
same,TGI,CAKI-1 renal,> 100 µM
same,TGI,CCRF-CEM leukemia,72.7 µM
same,TGI,COLO 205 colon,31.2 µM
same,TGI,DU-145 prostate,> 100 µM
same,TGI,EKVX NSCLC,> 100 µM
same,TGI,HCC-2998 colon,> 100 µM
same,TGI,HCT-116 colon,> 100 µM
same,TGI,HCT-15 colon,> 100 µM
same,TGI,HL-60(TB) leukemia,20.1 µM
same,TGI,HOP-62 NSCLC,> 100 µM
same,TGI,HOP-92 NSCLC,> 100 µM
same,TGI,HT29 colon,> 100 µM
same,TGI,IGROV1 ovarian,> 100 µM
same,TGI,K-562 leukemia,58.2 µM
same,TGI,KM12 colon,> 100 µM
same,TGI,LOX IMVI melanoma,31.3 µM
same,TGI,M14 melanoma,76.7 µM
same,TGI,MALME-3M melanoma,74.7 µM
same,TGI,MCF7 breast,> 100 µM
same,TGI,MDA-MB-231 breast,> 100 µM
same,TGI,MDA-MB-435,> 100 µM
same,TGI,MDA-N,> 100 µM
same,TGI,MOLT-4 leukemia,26.3 µM
same,TGI,NCI-H226 lung,> 100 µM
same,TGI,NCI-H23 lung,> 100 µM
same,TGI,NCI-H460 lung,> 100 µM
same,TGI,NCI-H522 lung,68.5 µM
same,TGI,NCI/ADR-RES ovarian,57.1 µM
same,TGI,OVCAR-3 ovarian,> 100 µM
same,TGI,OVCAR-4 ovarian,> 100 µM
same,TGI,OVCAR-5 ovarian,> 100 µM
same,TGI,OVCAR-8 ovarian,58.5 µM
same,TGI,PC-3 prostate,> 100 µM
same,TGI,RPMI-8226 leukemia,98.8 µM
same,TGI,RXF 393 renal,> 100 µM
same,TGI,SF-268 CNS,> 100 µM
same,TGI,SF-295 CNS,> 100 µM
same,TGI,SF-539 CNS,> 100 µM
same,TGI,SK-MEL-2 melanoma,> 100 µM
same,TGI,SK-MEL-28 melanoma,> 100 µM
same,TGI,SK-MEL-5 melanoma,> 100 µM
same,TGI,SK-OV-3 ovarian,> 100 µM
same,TGI,SN12C renal,> 100 µM
same,TGI,SNB-19 CNS,> 100 µM
same,TGI,SNB-75 CNS,> 100 µM
same,TGI,SR leukemia,72.7 µM
same,TGI,SW-620 colon,> 100 µM
same,TGI,T-47D breast,> 100 µM
same,TGI,TK-10 renal,> 100 µM
same,TGI,U251 CNS,> 100 µM
same,TGI,UACC-257 melanoma,> 100 µM
same,TGI,UACC-62 melanoma,> 100 µM
same,TGI,UO-31 renal,> 100 µM
